According to patent US12090204B2, “Photodynamic therapy compositions and methods of use thereof” (Pinnacle Biologics, Inc., priority 2020, dated 2024):

Tests used:
P. acnes (+) = experiment: porfimer sodium aPDT, 48 hour biofilm culture; format: cell-based, Proprionibacterium acnes (Cutibacterium acnes); settings: 630 nm, kill at 100 J/cm2 (light dose 75-100 J/cm2), porfimer sodium 250 μg/mL
Procedure: (§1) Bacteria were routinely cultured using tryptic soy broth or agar at 37° C. in a 5% CO2 incubator. Bacteria were isolated and suspended with 0.9% NaCl to an Optical Density (OD) of 0.1 taken at 630 nm, to generate the inoculum used for either planktonic or biofilm assays.
(§2) The colony forming units (CFU) per mL of the starting inoculum for every experiment was determined by dilution plating. Control samples were exposed to laser at 630 nm in the absence of porfimer sodium, porfimer sodium in the absence of laser exposure, or in saline alone in the absence of porfimer sodium and 630 nm laser light. All experimental samples were dilution plated to enumerate viable CFU's. Three independent replicates were performed for each reaction condition per strain per assay. […]
(§3) Bacteria were exposed to 630 nm laser light via a fiber optic with a lens affixed to the distal end to provide a uniform diverging light field. […] Power output of the laser was measured using a UDT/Gamma Scientific 371 optical power meter and an integrating sphere. […]
(§4) Biofilms were formed on glass coupons in culture dishes containing a bacterial inoculum for 48 hours under conditions specific to the strain. […] Power output of the laser was measured using a UDT/Gamma Scientific 371 optical power meter and an integrating sphere. […]

[1] = system: planktonic and biofilm bacterial populations; experiment: porfimer sodium photodynamic therapy in vitro, overall summary; format: cell-based
Procedure: This study evaluated the bactericidal efficacy of porfimer sodium based photodynamic therapy against standard and antibiotic resistant bacterial strains in planktonic and biofilm cultures. The primary efficacy endpoint was the overall cell kill analysis as determined by the enumeration of viable colony forming assays post PDT treatments as analyzed using the unpaired students two-tailed t test on log transformed data.
Planktonic cultures were prepared by adding bacteria to glass vials with saline and porfimer sodium to a final concentration ranging from 125 μg/ml to 150 μg/ml.
Biofilms were formed on glass coupons in culture dishes containing a bacterial inoculum for 48 hours under conditions specific to the strain. The glass coupon attached biofilms were then rinsed with saline, by dipping method, prior to the administration of the porfimer sodium. The biofilms were incubated in the dark for 15-30 minutes with a reconstituted saline solution of porfimer sodium at final concentrations ranging from 75 μg/ml-250 μg/ml. The porfimer sodium treated biofilms were then exposed to light doses at 630 nm light of 50-200 J/cm^2 at a power density of 150 milliwatts per cm^2. […] Power output of the laser was measured using a UDT/Gamma Scientific 371 optical power meter and an integrating sphere. […]

F. nucleatum (−) = experiment: porfimer sodium aPDT, planktonic culture; format: cell-based, Fusobacterium nucleatum; settings: 630 nm, 50 J/cm2, porfimer sodium 125 μg/mL
Procedure: as §1
(§5) Experiments using planktonic cultures were carried out using M. catarrhalis, as a standard for further comparisons and to determine the effective drug concentration, porfimer sodium incubation time and light dose parameters which would provide an effective cell kill at the level of 5-7 logs. Once determined the experiments were repeated for all other bacterial strains examined.
(§6) The colony forming units (CFU) per mL of the starting inoculum for every experiment was determined by dilution plating. […]
as §3, §4

MRSA (+) = experiment: porfimer sodium aPDT, planktonic culture; format: cell-based, methicillin-resistant Staphylococcus aureus; settings: 630 nm, 200 J/cm2, porfimer sodium 125 μg/mL
Procedure: as §1, §5, §6, §3, §4

P. gingivalis (−) [2] = experiment: porfimer sodium aPDT, 48 hour biofilm culture; format: cell-based, Porphyromonas gingivalis; settings: 630 nm, kill at 100 J/cm2 (light dose 75-100 J/cm2), porfimer sodium 250 μg/mL
Procedure: as §1, §2, §3, §4

H. influenza (−) = experiment: porfimer sodium aPDT, planktonic culture; format: cell-based, Haemophilus influenza; settings: 630 nm, 200 J/cm2, porfimer sodium 125 μg/mL
Procedure: as §1, §5, §6, §3, §4

M. catarrhalis (−) = experiment: porfimer sodium aPDT, 48 hour biofilm culture; format: cell-based, Moraxella catarrhalis; settings: 630 nm, kill at 75 J/cm2 (light dose 75-100 J/cm2), porfimer sodium 250 μg/mL
Procedure: as §1, §2, §3, §4

B. atrophaeus (+) = experiment: porfimer sodium aPDT, planktonic culture; format: cell-based, Bacillus atrophaeus; settings: 630 nm, 200 J/cm2, porfimer sodium 125 μg/mL
Procedure: as §1, §5, §6, §3, §4

Prevotella (−) = experiment: porfimer sodium aPDT, planktonic culture; format: cell-based; settings: 630 nm, kill at 75 J/cm2 (light dose 50-100 J/cm2), porfimer sodium 150 μg/mL
Procedure: as §1, §5, §6, §3, §4

[3] = conventional reconstituted porfimer sodium, comparison statement; cited from earlier work
P. gingivalis (−) [4] = experiment: porfimer sodium aPDT, planktonic culture; format: cell-based, Porphyromonas gingivalis; settings: 630 nm, kill at 75 J/cm2 (light dose 50-100 J/cm2), porfimer sodium 150 μg/mL
Procedure: as §1, §5, §6, §3, §4

N. gonorrhoea (−) = experiment: porfimer sodium aPDT, planktonic culture; format: cell-based, Neisseria gonorrhea; settings: 630 nm, 200 J/cm2, porfimer sodium 125 μg/mL
Procedure: as §1, §5, §6, §3, §4

porfimer sodium
Rate of kill (P. acnes (+)): 7Log
log reductions in bacterial loads [1]: 5-6 log
reduction in bacterial loads [1]: > 99%
Rate of kill (F. nucleatum (−)): 3Log
Rate of kill (MRSA (+)): >6Log
Rate of kill (P. gingivalis (−) [2]): 7Log
Rate of kill (H. influenza (−)): 4Log
Rate of kill (M. catarrhalis (−)): >6Log
Rate of kill (B. atrophaeus (+)): 6Log
Rate of kill (Prevotella (−)): 7Log
time stable when reconstituted with saline [3]: 24 h
Rate of kill (P. gingivalis (−) [4]): 7Log
Rate of kill (N. gonorrhoea (−)): 4Log
